This passage reports IC50 and Ratio IC50 results from ChEMBL document CHEMBL4392854, “Discovery, synthesis, biological evaluation and molecular docking study of (R)-5-methylmellein and its analogs as selective monoamine oxidase A inhibitors” (Bioorg Med Chem, 2019).

For test [1], the target named is T1, Amine oxidase [flavin-containing] A (Homo sapiens, UniProt P21397).
T1 sequence (P21397 whole entry): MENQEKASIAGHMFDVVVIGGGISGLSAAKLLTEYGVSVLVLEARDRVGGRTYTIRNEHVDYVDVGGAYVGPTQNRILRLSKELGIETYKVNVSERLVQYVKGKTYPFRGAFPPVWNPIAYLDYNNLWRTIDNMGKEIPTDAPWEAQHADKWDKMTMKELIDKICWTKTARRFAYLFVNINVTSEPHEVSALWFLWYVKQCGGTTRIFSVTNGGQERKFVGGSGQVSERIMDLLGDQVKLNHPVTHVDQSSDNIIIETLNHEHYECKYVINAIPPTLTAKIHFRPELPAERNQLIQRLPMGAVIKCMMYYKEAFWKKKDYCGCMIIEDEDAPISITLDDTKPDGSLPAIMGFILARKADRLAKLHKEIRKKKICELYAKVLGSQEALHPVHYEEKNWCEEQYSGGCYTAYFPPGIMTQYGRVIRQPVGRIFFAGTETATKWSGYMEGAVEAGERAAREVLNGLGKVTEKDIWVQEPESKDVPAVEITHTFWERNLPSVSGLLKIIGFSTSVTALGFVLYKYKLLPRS
The test can be described thus: Inhibition of human recombinant MAOA using kynuramine as substrate incubated for 10 mins by UPLC-ESI-MS/MS analysis.

Test [2] addresses T2, Amine oxidase [flavin-containing] B (Homo sapiens, UniProt P27338).
T2 sequence (P27338 whole entry): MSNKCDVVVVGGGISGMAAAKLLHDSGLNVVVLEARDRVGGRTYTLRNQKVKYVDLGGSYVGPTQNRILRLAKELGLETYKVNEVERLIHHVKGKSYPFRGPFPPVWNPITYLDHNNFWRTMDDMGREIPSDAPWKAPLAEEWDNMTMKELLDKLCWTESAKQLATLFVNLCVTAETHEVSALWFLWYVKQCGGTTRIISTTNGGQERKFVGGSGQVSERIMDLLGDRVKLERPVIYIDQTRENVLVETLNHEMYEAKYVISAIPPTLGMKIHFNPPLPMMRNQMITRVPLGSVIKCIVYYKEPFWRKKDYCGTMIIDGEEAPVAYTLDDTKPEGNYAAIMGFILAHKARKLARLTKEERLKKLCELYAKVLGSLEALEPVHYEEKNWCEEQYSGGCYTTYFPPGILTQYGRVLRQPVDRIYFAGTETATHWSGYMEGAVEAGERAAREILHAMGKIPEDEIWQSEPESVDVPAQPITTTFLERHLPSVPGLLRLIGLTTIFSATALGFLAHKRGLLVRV
The test can be described thus: Inhibition of human recombinant MAOB using kynuramine as substrate incubated for 10 mins by UPLC-ESI-MS/MS analysis.

The species named for a further test is Homo sapiens. The test can be described thus: Selectivity index, ratio of IC50 for human recombinant MAOB to IC50 for human recombinant MAOA.

One may read the IC50 as the concentration at which inhibition is half-maximal. Turning to `Cc1cc(Br)c(O)c2c1C[C@@H](C)OC2=O`, the IC50 is 28.6 µM in test [1] and > 50 µM in test [2]. Besides, in the test listed under Homo sapiens, the Ratio IC50 was > 1.7.

In the case of `Cc1cc([N+](=O)[O-])c(O)c2c1C[C@@H](C)OC2=O`, the concentration for half-maximal inhibition (IC50) in test [1] is 15.8 µM; in test [2], > 50 µM. In addition, the Ratio IC50 in the test filed under Homo sapiens was > 3.1.

Regarding `C[C@@H]1Cc2cccc(O)c2C(=O)O1` [(-)-(R)-MELLEIN], the IC50 in test [1] was determined as 6.2 µM; in test [2], 50 µM. Moreover, the Ratio IC50 in the test filed under Homo sapiens amounted to 8.1.

For `Cc1ccc(O)c2c1CCOC2=O`, the IC50 turned out to be 3.2 µM in test [1] and 5.5 µM in test [2]. In the test listed under Homo sapiens, the Ratio IC50 was 1.7.

`Cc1ccc(O)c2c1CC(C)(C)OC2=O`: the IC50 in test [1] and in test [2] was > 50 µM each time.

Take `Cc1cc(-c2ccncc2)c(O)c2c1C[C@@H](C)OC2=O`: the IC50 was 2.7 µM in test [1] and > 50 µM in test [2]. Further, the Ratio IC50 in the test listed under Homo sapiens is > 18.

For `Cc1cc(-c2ccc(O)cc2)c(O)c2c1C[C@@H](C)OC2=O`, the concentration for half-maximal inhibition (IC50) came out at 1.1 µM in test [1] and 38.9 µM in test [2]. Besides, the Ratio IC50 in the test listed under Homo sapiens was determined as 38.

As for `COc1ccc(C)c2c1C(=O)O[C@@H](C)C2`, the IC50 in test [1] and in test [2] was > 50 µM in each case.

On to `CCCc1cc(C)c2c(c1O)C(=O)O[C@H](C)C2`, for which the values for the IC50 in test [1] and in test [2] were 4.5 µM and > 50 µM, respectively. In addition, the Ratio IC50 in the test listed under Homo sapiens was > 11.

As for `Cc1ccc(O)c2c1C[C@H](C)OC2=O`, the 50% inhibitory concentration (IC50) in test [1] is 4.1 µM; in test [2], 40.9 µM. The Ratio IC50 in the test filed under Homo sapiens stood at 10.

`Cc1ccc(-c2cc(C)c3c(c2O)C(=O)O[C@H](C)C3)cc1`: the results for the IC50 in test [1] and in test [2] were 12.4 µM and 4.1 µM, respectively. The Ratio IC50 in the test filed under Homo sapiens amounted to 0.3.

In the case of `Cc1cc(-c2ccccc2)c(O)c2c1C[C@@H](C)OC2=O`, the IC50 in test [1] was determined as 10.5 µM; in test [2], 1 µM. In the test listed under Homo sapiens, the Ratio IC50 worked out at 0.1.

For `COc1cccc2c1C(=O)O[C@H](C)C2`, the IC50 in test [1] and in test [2] was > 50 µM each time.

With `COc1ccc(C)c2c1C(=O)O[C@H](C)C2`, the IC50 in test [1] and in test [2] was > 50 µM in each case.

As to `C[C@@H]1Cc2c(C(=O)O)ccc(O)c2C(=O)O1`, the IC50 in test [1] and in test [2] was > 50 µM each time.

Consider `CCCCc1cc(C)c2c(c1O)C(=O)O[C@H](C)C2`, for which the IC50 in test [1] is 18.3 µM; in test [2], > 50 µM. The Ratio IC50 in the test listed under Homo sapiens was > 2.7.

As to `CCc1ccc(O)c2c1C[C@@H](C)OC2=O`, the values for the IC50 in test [1] and in test [2] were > 50 µM and 16.1 µM, respectively. For the same molecule, the Ratio IC50 in the test filed under Homo sapiens is < 0.3.

With `Cc1cc(-c2ccc(N)cc2)c(O)c2c1C[C@@H](C)OC2=O`, the IC50 in test [1] worked out at 0.8 µM; in test [2], 21 µM. Besides, the Ratio IC50 in the test listed under Homo sapiens is 26.

Turning to `CCc1cc(C)c2c(c1O)C(=O)O[C@H](C)C2`, the values for the IC50 in test [1] and in test [2] were 2.9 µM and > 50 µM, respectively. For the same molecule, the Ratio IC50 in the test listed under Homo sapiens was > 17.

Turning to `COc1ccc(NCc2cc(C)c3c(c2O)C(=O)O[C@H](C)C3)cc1`, the results for the IC50 in test [1] and in test [2] were 4.4 µM and > 50 µM, respectively. The Ratio IC50 in the test filed under Homo sapiens is > 11.

Take `CCN(CC)C(=O)c1cc(C)c2c(c1O)C(=O)O[C@H](C)C2`: the IC50 in test [1] and in test [2] was > 50 µM each time.

Turning to `C=CC(=O)Nc1cc(C)c2c(c1O)C(=O)O[C@H](C)C2`, the IC50 in test [1] and in test [2] was > 50 µM in each case.

With `Cc1cc(C(=O)O)c(O)c2c1C[C@@H](C)OC2=O`, the IC50 in test [1] and in test [2] was > 50 µM throughout.

On to `Cc1cc(-c2ccccn2)c(O)c2c1C[C@@H](C)OC2=O`, for which the half-maximal inhibitory concentration (IC50) in test [1] is 2.1 µM; in test [2] it was > 50 µM. Further, the Ratio IC50 in the test listed under Homo sapiens was > 24.

Turning to `C[C@H]1Cc2cccc(O)c2C(=O)O1`, the IC50 in test [1] amounted to 7.5 µM; in test [2] it was 24 µM. Besides, in the test listed under Homo sapiens, the Ratio IC50 came to 3.2.

As for `Cc1cc(N)c(O)c2c1C[C@@H](C)OC2=O`, the half-inhibitory concentration (IC50) was 4.1 µM in test [1] and > 50 µM in test [2]. The Ratio IC50 in the test listed under Homo sapiens was > 11.

Regarding `Cc1cc(-c2ccc(C(F)(F)F)cc2)c(O)c2c1C[C@@H](C)OC2=O`, the results for the IC50 in test [1] and in test [2] were 13.7 µM and 1 µM, respectively. Further, in the test filed under Homo sapiens, the Ratio IC50 is 0.1.

As to `Cc1cc(C#N)c(O)c2c1C[C@@H](C)OC2=O`, the IC50 in test [1] and in test [2] was > 50 µM in each case.

Turning to `Cc1cc(C(=O)N2CCN(C)CC2)c(O)c2c1C[C@@H](C)OC2=O`, the IC50 in test [1] and in test [2] was > 50 µM in each case.

As to `Cc1cc(C(=O)N2CCOCC2)c(O)c2c1C[C@@H](C)OC2=O`, the IC50 in test [1] and in test [2] was > 50 µM each time.

Take `Cc1cc(C(=O)N(C)C)c(O)c2c1C[C@@H](C)OC2=O`: the IC50 in test [1] and in test [2] was > 50 µM throughout.

With `Cc1cc2cccc(O)c2c(=O)o1`, the IC50 in test [1] is 23.4 µM; in test [2] it was > 50 µM. The Ratio IC50 in the test listed under Homo sapiens is > 2.

For `Cc1cc(-c2cccc([N+](=O)[O-])c2)c(O)c2c1C[C@@H](C)OC2=O`, the values for the IC50 in test [1] and in test [2] were 3 µM and > 50 µM, respectively. Further, the Ratio IC50 in the test filed under Homo sapiens was > 17.

For `CC[C@@H]1Cc2c(C)cc(-c3ccc(N)cc3)c(O)c2C(=O)O1`, the values for the IC50 in test [1] and in test [2] were 0.3 µM and > 50 µM, respectively. Moreover, the Ratio IC50 in the test filed under Homo sapiens is > 167.

For the molecule `Cc1cc(C)c2c(c1O)C(=O)O[C@H](C)C2`, the IC50 is 3.8 µM in test [1] and > 50 µM in test [2]. For the same molecule, the Ratio IC50 in the test filed under Homo sapiens is > 13.

Turning to `C[C@@H]1Cc2c(O)ccc(O)c2C(=O)O1`, the values for the half-inhibitory concentration (IC50) in test [1] and in test [2] were 17.1 µM and > 50 µM, respectively. In the test filed under Homo sapiens, the Ratio IC50 was > 2.9.

Consider `Cc1cc(I)c(O)c2c1C[C@@H](C)OC2=O`, for which the IC50 in test [1] is 15.9 µM; in test [2], > 50 µM. For the same molecule, the Ratio IC50 in the test filed under Homo sapiens was > 3.1.

In the case of `Cc1cc(C(=O)NCCN2CCOCC2)c(O)c2c1C[C@@H](C)OC2=O`, the IC50 in test [1] and in test [2] was > 50 µM throughout.

As for `Cc1cc(CO)c(O)c2c1C[C@@H](C)OC2=O`, the IC50 in test [1] was 19.2 µM; in test [2], > 50 µM. Moreover, in the test filed under Homo sapiens, the Ratio IC50 was > 2.6.

Turning to `Cc1cc(Cl)c(O)c2c1C[C@@H](C)OC2=O`, the IC50 in test [1] is 2.2 µM; in test [2], > 50 µM. Also, the Ratio IC50 in the test filed under Homo sapiens was > 22.

For the molecule `CC[C@@H]1Cc2c(C)ccc(O)c2C(=O)O1`, the IC50 in test [1] was 8 µM; in test [2], > 50 µM. Also, the Ratio IC50 in the test listed under Homo sapiens is > 6.2.

In the case of `C[C@@H]1Cc2c(CO)ccc(O)c2C(=O)O1`, the 50% inhibitory concentration (IC50) in test [1] and in test [2] was > 50 µM each time.

Regarding `Cc1cc(N(C)C)c(O)c2c1C[C@@H](C)OC2=O`, the IC50 in test [1] is 13.6 µM; in test [2], > 50 µM. Moreover, the Ratio IC50 in the test filed under Homo sapiens was > 3.6.
